Reference: patent EP1148124A1 (priority 1999, dated 2000)

System: aryl hydrocarbon receptor
Assay: Reporter assay (No. 1), ligand responsive reporter gene (firefly luciferase, pGV-Ya-XREx5), clone of Example 2
Assay type: cell-based, mouse
Details: about 40 hours; for Amount of luminescence by firefly luciferase (from pGV-Ya-XREx5) Ratio: ratio to 0 pg/ml
From the text: Separately, plasmid pGV-Ya-XREx5 (ligand responsive reporter gene containing plasmid) constructed in Example 1 was digested with Bam HI. Further, plasmid pRL-TK (cell number reporter gene containing plasmid; marketed by Toyo Ink) containing the sea pansy luciferase gene used as the cell number reporter gene was digested with Bam HI, and neomycin resistance (aminoglycoside phosphotransferase) gene containing plasmid pRc/RSV (available from INVITROGEN) was digested with Hind III. These three digested plasmids, i.e., Bam HI digested pGV-Ya-XREx5 (2.8 µg), Bam HI digested pRL-TK (2.8 µg), and Hind III digested pRc/RSV (0.5 µg), were then mixed with 300 µl of αMEM medium (mixture A), while 36 µl of lipofectin (available from GIBCO-BRL) was mixed with 300 µl of αMEM medium (mixture B). After being left at room temperature for 30 minutes, mixtures A and B were combined together and left at room temperature for 10 minutes. The Hepa1clc7 cells cultured overnight as described above were then washed once with αMEM medium, to which there was added a solution prepared by adding and mixing additional 5.4 ml of αMEM medium to the above mixture (A + B). Culturing of the resulting mixture was carried out for 5 hours. The medium was then replaced with 10% serum containing αMEM medium, followed by further culturing overnight. Subsequently, the cells were scratched from the petri dishes and collected, and the collected cells were suspended in 10% serum containing αMEM medium to have the total volume of 100 ml. The resulting cell suspension was plated on 96 well plates at a ratio of 100 µl/well. After these plates were cultured overnight, a medium prepared by dissolving geneticin (hereinafter referred to as "G418") in 10% serum containing αMEM medium to have a concentration of 1.6 mg/ml was added at a ratio of 100 µl/well (G418 final concentration 800 µg/ml). Culturing was further continued for 3 weeks, during which the medium was replaced with 10% serum containing αMEM medium containing 800 µg/ml G418 at a rate of once per week. The volume of the medium was set at 200 µl/well. After said 3 weeks, cells were scratched from the wells in which colony formation had been observed, and collected (for 192 wells), and the collected cells were divided into three and independently plated on different plates, followed by continuous culturing for 4 days. To the first plate, only DMSO was added (solvent control), and to the second plate, 3-methylcholanthrene (hereinafter referred to as "3-MC") dissolved in DMSO was added so that the final concentration of 3-MC in the second plate came to 10 µM per well. The first and second plates were then cultured overnight. The third plate was further cultured as the master plate without any addition. From each well of each plate, to which DMSO or 3-MC had been added, the medium was removed, and the wells were washed twice with PBS(-) (sodium chloride, 8000 mg/l; potassium chloride, 200 mg/l; sodium monohydrogenphosphate (anhydrous), 1150 mg/l; […] dihydrogenphosphate (anhydrous), 200 mg/l; marketed by Nissui Pharmaceutical). A 5-fold diluted cell lysis buffer of PicaGene dual kit (marketed by Toyo Ink) was added to the wells in 15 µl/well, followed by leaving the plates at room temperature for 30 minutes or longer to cause cell lysis, to give cell extracts. These plates were set on a luminometer LB96P with an automatic enzyme substrate injector (available from Berthold), and PicaGene luminescence reagent II and sea pansy luminescence reagent (PicaGene dual kit, marketed by Toyo Ink) were automatically dispensed each in 50 µl, followed by continuous measurement for the amount of luminescence.
The clone screened in Example 2 was plated on 96-well plates at a ratio of 40,000 cells/well, followed by culturing overnight. […]

## Clc1cc2c(cc1Cl)Oc1cc(Cl)c(Cl)cc1O2 [TCDD, 2,3,7,8-tetrachlorodibenzo-p-dioxin]
Final conc. 0.02 pg/ml
  Amount of luminescence by firefly luciferase (from pGV-Ya-XREx5) Measured value: 0.517 x 10^4
  Amount of luminescence by firefly luciferase (from pGV-Ya-XREx5) Ratio: 1.1
Final conc. 0.2 pg/ml
  Amount of luminescence by firefly luciferase (from pGV-Ya-XREx5) Measured value: 0.532 x 10^4
  Amount of luminescence by firefly luciferase (from pGV-Ya-XREx5) Ratio: 1.1
Final conc. 2 pg/ml
  Amount of luminescence by firefly luciferase (from pGV-Ya-XREx5) Measured value: 0.873 x 10^4
  Amount of luminescence by firefly luciferase (from pGV-Ya-XREx5) Ratio: 1.8
Final conc. 20 pg/ml
  Amount of luminescence by firefly luciferase (from pGV-Ya-XREx5) Measured value: 3.14 x 10^4
  Amount of luminescence by firefly luciferase (from pGV-Ya-XREx5) Ratio: 6.5
Final conc. 200 pg/ml
  Amount of luminescence by firefly luciferase (from pGV-Ya-XREx5) Measured value: 4.46 x 10^4
  Amount of luminescence by firefly luciferase (from pGV-Ya-XREx5) Ratio: 9.2
Final conc. 2000 pg/ml
  Amount of luminescence by firefly luciferase (from pGV-Ya-XREx5) Measured value: 4.17 x 10^4
  Amount of luminescence by firefly luciferase (from pGV-Ya-XREx5) Ratio: 8.6
Final conc. 20000 pg/ml
  Amount of luminescence by firefly luciferase (from pGV-Ya-XREx5) Measured value: 4.49 x 10^4
  Amount of luminescence by firefly luciferase (from pGV-Ya-XREx5) Ratio: 9.2
